Test results: US9023998B2, “Near infrared fluorogen and fluorescent activating proteins for in vivo imaging and live-cell biosensing” (Carnegie Mellon University, priority 2013, dated 2015)

Columns and labels:
mL9.3 (SEQ. ID. NO. 20) = assay: Fluorogen activation by purified monomeric FAP mL9.3 (spectra); format: biochemical; details: purified protein, about 300 nM fluorogen, PBS pH 7.4
Description: While the peptide linker that joins the VL units in dL9.2 (SEQ. ID. NO. 2) and dL9.5 (SEQ. ID. NO. 3) enhance fluorogen binding affinity and binding rate by reducing the entropic cost of assembly around the fluorogen, the linker is not strictly necessary for fluorogenic activation. […] In panels C and D, corresponding spectra from mL9.5:SKC602 (SEQ. ID. NO. 21:SKC602) and mL9.5:SKC728 (SEQ. ID. NO. 21:SKC728) fluoromodules are shown. Spectra were obtained using a Quantamaster™ fluorometer (PTI) equipped with dual monochromators on both excitation and emission light paths.
To facilitate ligase-dependent cloning methods, the above procedure was repeated for dL9.5 (SEQ. ID. NO. 6), using otherwise identical primers that appended BspEI (TCCGGA) (SEQ. ID. NO. 25) and BamHI (GGATCC) (SEQ. ID. NO. 26) sites directly at the 5′ and 3′ termini, respectively, of the dL9.5 gene (SEQ. ID. NO. 6). The resulting plasmid, designated pPNL9z-dL9.5, could be digested with BspEI (SEQ. ID. NO. 25) and BamHI (SEQ. ID. NO. 26) to produce a yeast expression vector backbone capable of receiving inserts with like-digested termini. […]

dL9.2 (SEQ. ID. NO. 2) = assay: Binding/activation of fluorogen by FAP dL9.2
Description: A precursor FAP designated dL9 (SEQ. ID. NO. 1) was designed using the coding sequence of the light-chain from HL9-MG, a scFv originally isolated for binding and fluorescence activation of malachite green-based fluorogenic dyes (Szent-Gyorgyi, et al. 2008, incorporated herein by reference). This FAP was assembled as a tandem dimer of light chains by attaching a glycine-serine linker and a codon-optimized copy of the light chain gene to the original light chain via PCR. […] Mutagenesis and library generation by electroporation was performed in a previously described manner (Chao, et al., Isolating and engineering human antibodies using yeast surface display, Nature Protocols, vol. 1, No. 2, pp. 755-768 (2006)), but screening employed the protein secretion vector pPNL9, rather than the surface display vector pPNL6: Individual S. cerevisiae expressing FAP mutants were incubated with cell-permeant fluorogen MG-ester and the brightest activators were cloned via flow cytometry. Clones were induced for FAP production in tryptone-based protein secretion media (Szent-Gyorgyi, et al. 2008) and media was screened for activation of MG-ester after five days of induction at 20° C. This screen yielded dL9.2 (SEQ. ID. NO. 2): a bright, stable FAP amenable to high levels of expression. […]

| Compound | Induction of NIR fluorescence by mL9.3 (mL9.3 (SEQ. ID. NO. 20)) | Binding and fluorescence activation by dL9.2 (dL9.2 (SEQ. ID. NO. 2)) |
| --- | --- | --- |
| CN(C)c1ccc(C(/C=C/c2ccc(N(C)CCCCC(=O)NC(CCS(=O)(=O)O)C(=O)O)cc2)=C2C=CC(=[N+](C)C)C=C2)cc1 (stereo not shown) [SKC728] | induces fluorescence | bind |
| CN(C)c1ccc(/C=C/C(=C2C=CC(=[N+](C)C)C=C2)c2ccc(N(C)C)cc2)cc1 [SKC602, (E)-N-(4-(1,3-bis(4-(dimethylamino)phenyl)allylidene)cyclohexa-2,5-dien-1-ylidene)-N-methylmethanaminium] | induces fluorescence | bind and activate fluorescence |
